Measured values taken from ChEMBL document CHEMBL5696442, “Discovery of type II inhibitors of TGFβ-activated kinase 1 (TAK1) and mitogen-activated protein kinase kinase kinase kinase 2 (MAP4K2)” (J Med Chem, 2015).
Activity calls are given as the source filed them. The calls are words filed in the database; no cut-off is given here.

How the values were obtained:
[1] = target: T1, Serine/threonine-protein kinase D3 (Homo sapiens) (UniProt O94806); test: Inhibition of PKD3 K2 labeling site in human Huh-7 cells at 10 uM by KiNativ Profiling analysis relative to control; format: cell-based
T1 sequence (whole entry): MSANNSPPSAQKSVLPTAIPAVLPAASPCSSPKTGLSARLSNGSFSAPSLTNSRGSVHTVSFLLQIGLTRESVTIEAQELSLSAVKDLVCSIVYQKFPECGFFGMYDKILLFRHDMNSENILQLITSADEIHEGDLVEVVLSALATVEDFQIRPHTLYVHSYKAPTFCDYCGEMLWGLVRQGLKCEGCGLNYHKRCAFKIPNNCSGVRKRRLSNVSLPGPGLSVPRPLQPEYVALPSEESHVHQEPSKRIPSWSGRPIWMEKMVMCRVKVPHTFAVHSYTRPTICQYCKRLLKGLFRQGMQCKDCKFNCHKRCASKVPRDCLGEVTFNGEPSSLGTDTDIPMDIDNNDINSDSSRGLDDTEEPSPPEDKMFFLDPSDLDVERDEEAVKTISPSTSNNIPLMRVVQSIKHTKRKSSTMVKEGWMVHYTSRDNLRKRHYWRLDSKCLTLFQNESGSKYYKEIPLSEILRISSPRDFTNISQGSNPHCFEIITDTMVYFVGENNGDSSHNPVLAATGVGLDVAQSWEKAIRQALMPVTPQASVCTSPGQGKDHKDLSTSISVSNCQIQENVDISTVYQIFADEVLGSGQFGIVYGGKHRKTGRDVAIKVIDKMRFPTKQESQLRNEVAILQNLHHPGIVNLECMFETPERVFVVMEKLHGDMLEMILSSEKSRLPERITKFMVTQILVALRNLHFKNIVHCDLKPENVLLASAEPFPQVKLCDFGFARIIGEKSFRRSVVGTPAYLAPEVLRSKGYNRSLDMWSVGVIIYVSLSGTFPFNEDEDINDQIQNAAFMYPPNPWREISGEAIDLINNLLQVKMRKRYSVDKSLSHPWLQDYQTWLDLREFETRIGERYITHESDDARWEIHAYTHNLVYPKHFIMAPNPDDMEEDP

[2] = target: 1-phosphatidylinositol 3-phosphate 5-kinase (Homo sapiens) (UniProt Q9Y2I7); test: Inhibition of PIP5K3 ATP labeling site in human Huh-7 cells at 10 uM by KiNativ Profiling analysis relative to control; format: cell-based
[3] = target: Serine/threonine-protein kinase N2 (Homo sapiens) (UniProt Q16513); test: Inhibition of PKN2 K2 labeling site in human Huh-7 cells at 1 uM by KiNativ Profiling analysis relative to control; format: cell-based
[4] = target: Serine/threonine-protein kinase 16 (Homo sapiens) (UniProt O75716); test: Inhibition of MPSK1 K2 labeling site in human Huh-7 cells at 10 uM by KiNativ Profiling analysis relative to control; format: cell-based
[5] = target: Aurora kinase B (Homo sapiens) (UniProt Q96GD4); test: Inhibition of AURKB (unknown origin) at 10 uM by Ambit Kinomescan binding assay
[6] = target: T2, Eukaryotic translation initiation factor 2-alpha kinase 3 (Homo sapiens) (UniProt Q9NZJ5); test: Inhibition of PEK K2 labeling site in human Huh-7 cells at 10 uM by KiNativ Profiling analysis relative to control; format: cell-based
T2 sequence (whole entry): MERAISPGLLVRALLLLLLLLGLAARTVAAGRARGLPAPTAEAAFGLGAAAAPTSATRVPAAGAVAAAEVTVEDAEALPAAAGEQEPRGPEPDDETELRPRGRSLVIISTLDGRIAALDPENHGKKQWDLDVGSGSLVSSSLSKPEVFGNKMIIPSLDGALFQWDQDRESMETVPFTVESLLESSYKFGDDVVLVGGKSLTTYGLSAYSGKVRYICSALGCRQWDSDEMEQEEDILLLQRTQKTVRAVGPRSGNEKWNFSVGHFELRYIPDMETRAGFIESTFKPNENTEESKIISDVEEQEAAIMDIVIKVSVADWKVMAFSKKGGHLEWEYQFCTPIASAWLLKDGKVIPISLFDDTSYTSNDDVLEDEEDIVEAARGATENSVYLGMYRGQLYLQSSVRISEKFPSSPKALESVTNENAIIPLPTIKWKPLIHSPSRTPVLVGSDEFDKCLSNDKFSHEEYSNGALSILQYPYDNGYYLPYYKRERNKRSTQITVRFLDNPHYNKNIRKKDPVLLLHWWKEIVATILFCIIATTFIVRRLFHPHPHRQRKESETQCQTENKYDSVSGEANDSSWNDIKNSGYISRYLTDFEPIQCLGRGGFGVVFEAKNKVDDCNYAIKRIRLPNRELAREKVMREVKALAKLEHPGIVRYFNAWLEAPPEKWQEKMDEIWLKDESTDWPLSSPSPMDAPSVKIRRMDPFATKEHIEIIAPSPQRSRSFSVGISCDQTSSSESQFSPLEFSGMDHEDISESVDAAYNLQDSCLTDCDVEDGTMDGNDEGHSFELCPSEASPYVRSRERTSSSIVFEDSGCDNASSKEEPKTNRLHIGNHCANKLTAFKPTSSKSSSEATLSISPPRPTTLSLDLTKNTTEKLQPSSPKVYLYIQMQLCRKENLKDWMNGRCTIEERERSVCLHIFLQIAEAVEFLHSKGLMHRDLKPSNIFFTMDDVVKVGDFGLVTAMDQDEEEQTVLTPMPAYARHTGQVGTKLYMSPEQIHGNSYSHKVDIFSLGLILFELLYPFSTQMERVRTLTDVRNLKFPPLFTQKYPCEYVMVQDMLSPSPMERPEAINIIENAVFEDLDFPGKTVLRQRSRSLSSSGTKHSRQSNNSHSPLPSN

[7] = target: Serine/threonine-protein kinase 38-like (Homo sapiens) (UniProt Q9Y2H1); test: Inhibition of NDR2 ACT labeling site in human Huh-7 cell lysate at 1 uM by KiNativ Profiling analysis relative to control; format: subcellular
[8] = target: Serine/threonine-protein kinase Nek6 (Homo sapiens) (UniProt Q9HC98); test: Inhibition of NEK6 Lys2 labeling site harbouring DIKPANVFITATGVVK in human Huh-7 cells at 1 uM by KiNativ Profiling analysis relative to control; format: cell-based
[9] = target: Tyrosine-protein kinase Tec (Homo sapiens) (UniProt P42680); test: Inhibition of TEC (unknown origin) at 1 uM by Ambit Kinomescan binding assay relative to control
[10] = target: RAF proto-oncogene serine/threonine-protein kinase (Homo sapiens, UniProt P04049); test: Inhibition of RAF1 (unknown origin) Lys2 labeling site by KiNativ Profiling analysis
[11] = target: RAC-alpha serine/threonine-protein kinase (Homo sapiens) (UniProt P31749); test: Inhibition of AKT1 ATP Loop labeling site in human A-375 cells at 5 uM by KiNativ Profiling analysis relative to control; format: cell-based
Sequence of RAC-alpha serine/threonine-protein kinase (Homo sapiens) (P31749 whole entry): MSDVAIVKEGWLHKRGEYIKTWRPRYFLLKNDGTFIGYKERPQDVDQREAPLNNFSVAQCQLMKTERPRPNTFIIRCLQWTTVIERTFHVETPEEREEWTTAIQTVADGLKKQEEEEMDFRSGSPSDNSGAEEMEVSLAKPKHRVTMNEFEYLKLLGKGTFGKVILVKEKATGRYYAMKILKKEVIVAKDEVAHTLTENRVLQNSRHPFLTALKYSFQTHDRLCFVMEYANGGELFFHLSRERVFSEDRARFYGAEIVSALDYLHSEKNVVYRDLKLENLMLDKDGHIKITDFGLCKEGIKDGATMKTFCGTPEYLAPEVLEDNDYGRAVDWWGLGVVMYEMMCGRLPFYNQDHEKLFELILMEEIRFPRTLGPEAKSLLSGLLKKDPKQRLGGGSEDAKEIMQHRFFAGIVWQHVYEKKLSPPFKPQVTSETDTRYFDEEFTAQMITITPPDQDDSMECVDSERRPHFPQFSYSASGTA

Sequence of Serine/threonine-protein kinase Nek6 (Homo sapiens) (Q9HC98 whole entry): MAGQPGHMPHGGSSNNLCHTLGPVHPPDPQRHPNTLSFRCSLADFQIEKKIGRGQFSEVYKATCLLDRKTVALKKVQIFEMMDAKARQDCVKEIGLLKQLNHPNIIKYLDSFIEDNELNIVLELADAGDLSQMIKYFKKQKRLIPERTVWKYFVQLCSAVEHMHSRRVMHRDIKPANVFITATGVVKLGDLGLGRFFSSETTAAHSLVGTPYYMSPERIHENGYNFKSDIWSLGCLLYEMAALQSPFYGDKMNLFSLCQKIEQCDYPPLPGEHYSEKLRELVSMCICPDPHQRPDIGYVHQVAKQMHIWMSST
Sequence of Aurora kinase B (Homo sapiens) (Q96GD4 whole entry): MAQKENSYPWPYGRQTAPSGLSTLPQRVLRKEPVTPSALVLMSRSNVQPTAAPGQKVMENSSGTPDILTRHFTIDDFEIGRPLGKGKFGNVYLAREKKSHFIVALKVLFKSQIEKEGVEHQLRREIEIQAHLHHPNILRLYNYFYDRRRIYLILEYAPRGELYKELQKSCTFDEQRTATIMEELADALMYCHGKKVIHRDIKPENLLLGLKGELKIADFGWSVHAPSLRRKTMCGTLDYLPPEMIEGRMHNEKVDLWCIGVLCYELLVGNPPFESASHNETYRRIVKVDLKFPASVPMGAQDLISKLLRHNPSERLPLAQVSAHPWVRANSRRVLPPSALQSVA
Sequence of RAF proto-oncogene serine/threonine-protein kinase (P04049 whole entry): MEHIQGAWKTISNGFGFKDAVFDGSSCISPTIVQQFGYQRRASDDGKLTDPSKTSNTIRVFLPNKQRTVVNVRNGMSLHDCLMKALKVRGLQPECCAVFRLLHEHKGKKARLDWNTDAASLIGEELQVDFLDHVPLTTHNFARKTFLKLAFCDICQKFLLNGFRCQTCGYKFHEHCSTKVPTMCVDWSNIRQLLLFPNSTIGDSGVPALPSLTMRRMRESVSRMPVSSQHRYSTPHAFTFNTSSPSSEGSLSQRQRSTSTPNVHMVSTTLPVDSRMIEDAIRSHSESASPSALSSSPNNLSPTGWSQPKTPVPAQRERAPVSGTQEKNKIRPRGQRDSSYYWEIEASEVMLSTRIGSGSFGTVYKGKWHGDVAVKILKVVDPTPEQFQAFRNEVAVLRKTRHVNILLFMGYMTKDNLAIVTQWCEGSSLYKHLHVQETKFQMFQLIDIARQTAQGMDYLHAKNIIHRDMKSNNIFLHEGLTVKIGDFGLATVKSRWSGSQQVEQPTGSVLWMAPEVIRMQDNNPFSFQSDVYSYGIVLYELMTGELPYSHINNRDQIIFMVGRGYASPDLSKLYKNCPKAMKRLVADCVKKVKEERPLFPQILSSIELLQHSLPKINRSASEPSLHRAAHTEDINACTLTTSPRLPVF
Sequence of Tyrosine-protein kinase Tec (Homo sapiens) (P42680 whole entry, looked up): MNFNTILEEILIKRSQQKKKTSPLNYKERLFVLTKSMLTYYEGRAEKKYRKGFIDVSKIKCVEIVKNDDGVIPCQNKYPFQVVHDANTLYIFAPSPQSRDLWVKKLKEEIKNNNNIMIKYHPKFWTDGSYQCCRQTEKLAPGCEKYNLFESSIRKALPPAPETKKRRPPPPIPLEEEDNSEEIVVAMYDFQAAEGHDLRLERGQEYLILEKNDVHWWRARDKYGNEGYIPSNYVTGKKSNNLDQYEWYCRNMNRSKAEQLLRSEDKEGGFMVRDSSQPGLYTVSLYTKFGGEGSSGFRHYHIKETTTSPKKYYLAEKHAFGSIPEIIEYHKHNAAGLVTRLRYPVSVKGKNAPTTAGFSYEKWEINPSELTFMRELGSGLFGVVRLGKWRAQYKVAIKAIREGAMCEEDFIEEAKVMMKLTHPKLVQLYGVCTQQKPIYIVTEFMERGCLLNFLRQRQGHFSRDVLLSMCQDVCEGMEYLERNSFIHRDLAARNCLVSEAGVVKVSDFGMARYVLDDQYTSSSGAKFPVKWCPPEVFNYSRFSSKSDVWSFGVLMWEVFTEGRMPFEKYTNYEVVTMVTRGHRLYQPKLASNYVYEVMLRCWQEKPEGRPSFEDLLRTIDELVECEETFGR
Sequence of 1-phosphatidylinositol 3-phosphate 5-kinase (Homo sapiens) (Q9Y2I7 whole entry): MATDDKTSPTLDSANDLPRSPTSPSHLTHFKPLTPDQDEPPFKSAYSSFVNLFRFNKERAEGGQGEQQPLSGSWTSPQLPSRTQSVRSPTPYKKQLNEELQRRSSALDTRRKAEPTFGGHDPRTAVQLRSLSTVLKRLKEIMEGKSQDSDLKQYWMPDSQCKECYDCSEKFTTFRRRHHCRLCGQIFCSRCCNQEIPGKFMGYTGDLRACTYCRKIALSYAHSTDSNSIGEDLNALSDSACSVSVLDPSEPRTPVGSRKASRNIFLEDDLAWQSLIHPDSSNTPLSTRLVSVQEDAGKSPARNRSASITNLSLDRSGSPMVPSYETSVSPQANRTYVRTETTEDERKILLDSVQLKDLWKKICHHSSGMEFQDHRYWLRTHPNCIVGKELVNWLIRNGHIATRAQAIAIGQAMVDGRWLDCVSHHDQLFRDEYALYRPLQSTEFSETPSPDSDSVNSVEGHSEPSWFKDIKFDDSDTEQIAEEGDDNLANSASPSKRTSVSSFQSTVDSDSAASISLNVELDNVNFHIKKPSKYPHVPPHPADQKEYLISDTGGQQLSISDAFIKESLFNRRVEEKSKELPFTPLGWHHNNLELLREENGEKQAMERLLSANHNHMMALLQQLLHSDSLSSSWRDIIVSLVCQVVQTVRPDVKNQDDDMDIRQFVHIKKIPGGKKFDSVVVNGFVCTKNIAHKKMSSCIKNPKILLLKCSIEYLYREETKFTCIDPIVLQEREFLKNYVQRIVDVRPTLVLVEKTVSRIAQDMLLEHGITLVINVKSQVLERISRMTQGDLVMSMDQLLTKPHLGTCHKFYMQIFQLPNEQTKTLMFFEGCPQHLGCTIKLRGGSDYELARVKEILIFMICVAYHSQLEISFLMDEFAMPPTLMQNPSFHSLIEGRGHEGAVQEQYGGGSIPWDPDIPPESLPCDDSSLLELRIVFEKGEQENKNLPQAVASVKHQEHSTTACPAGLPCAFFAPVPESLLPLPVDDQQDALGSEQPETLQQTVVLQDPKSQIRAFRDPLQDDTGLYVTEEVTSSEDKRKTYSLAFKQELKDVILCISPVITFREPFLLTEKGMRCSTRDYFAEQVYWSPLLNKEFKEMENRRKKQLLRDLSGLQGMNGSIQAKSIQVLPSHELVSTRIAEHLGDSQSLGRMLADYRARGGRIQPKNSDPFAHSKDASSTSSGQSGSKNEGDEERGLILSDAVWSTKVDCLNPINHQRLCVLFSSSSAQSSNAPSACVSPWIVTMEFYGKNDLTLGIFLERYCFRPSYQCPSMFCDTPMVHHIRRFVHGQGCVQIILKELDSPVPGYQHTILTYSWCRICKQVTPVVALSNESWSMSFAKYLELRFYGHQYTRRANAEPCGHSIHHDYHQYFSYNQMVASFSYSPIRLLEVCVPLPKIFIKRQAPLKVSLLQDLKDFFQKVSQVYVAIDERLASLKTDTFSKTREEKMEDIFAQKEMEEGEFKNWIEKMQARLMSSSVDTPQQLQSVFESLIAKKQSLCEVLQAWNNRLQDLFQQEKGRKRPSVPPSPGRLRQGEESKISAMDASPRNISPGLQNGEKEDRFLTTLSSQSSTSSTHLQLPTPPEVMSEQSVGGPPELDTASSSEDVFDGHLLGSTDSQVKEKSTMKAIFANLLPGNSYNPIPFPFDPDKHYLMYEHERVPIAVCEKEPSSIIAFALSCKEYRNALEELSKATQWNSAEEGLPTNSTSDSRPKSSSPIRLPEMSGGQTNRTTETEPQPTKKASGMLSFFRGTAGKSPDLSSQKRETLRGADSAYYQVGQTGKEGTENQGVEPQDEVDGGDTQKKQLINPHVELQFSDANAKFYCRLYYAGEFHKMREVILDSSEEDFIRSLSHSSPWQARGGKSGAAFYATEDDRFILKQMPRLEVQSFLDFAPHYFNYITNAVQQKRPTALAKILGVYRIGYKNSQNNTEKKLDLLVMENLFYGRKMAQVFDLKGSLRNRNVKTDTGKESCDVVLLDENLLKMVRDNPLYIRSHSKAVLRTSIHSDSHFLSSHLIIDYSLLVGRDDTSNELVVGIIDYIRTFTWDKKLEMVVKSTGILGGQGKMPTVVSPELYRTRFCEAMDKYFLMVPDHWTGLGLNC
Sequence of Serine/threonine-protein kinase 38-like (Homo sapiens) (Q9Y2H1 2-464 limits assumed): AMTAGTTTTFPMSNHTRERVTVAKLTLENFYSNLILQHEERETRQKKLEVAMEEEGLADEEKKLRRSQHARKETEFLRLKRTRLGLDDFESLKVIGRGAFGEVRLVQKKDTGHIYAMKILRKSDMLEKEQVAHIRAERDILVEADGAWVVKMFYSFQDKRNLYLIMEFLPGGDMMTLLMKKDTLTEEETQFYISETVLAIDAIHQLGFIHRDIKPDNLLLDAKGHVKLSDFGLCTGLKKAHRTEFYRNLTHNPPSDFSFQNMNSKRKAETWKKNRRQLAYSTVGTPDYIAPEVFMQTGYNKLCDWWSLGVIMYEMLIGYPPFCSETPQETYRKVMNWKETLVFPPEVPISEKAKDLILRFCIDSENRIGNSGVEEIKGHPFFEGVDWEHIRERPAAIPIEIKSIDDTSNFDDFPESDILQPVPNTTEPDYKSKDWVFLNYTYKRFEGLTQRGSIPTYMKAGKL

Q: What does the source list for `CCN1CCN(Cc2ccc(NC(=O)c3ccc(C)c(Oc4ccnc5[nH]ccc45)c3)cc2C(F)(F)F)CC1`?
A: inhibition [1]: 17.2%; inhibition [2]: 13.8%; inhibition [3]: -6.3%; inhibition [4]: 19.2%; inhibition [5]: inactive; inhibition [6]: inactive

Q: What does the source list for `CNc1cc(Oc2cc(C(=O)Nc3cc(N4CCN(C)CC4)cc(C(F)(F)F)c3)ccc2C)ncn1`?
A: inhibition [7]: 4.2%; inhibition [8]: -2.7%

Q: How did the inhibition [9] turn out when `CCN1CCN(Cc2ccc(NC(=O)c3ccc(C)c(/C=C/c4cnc5[nH]ccc5c4OC)c3)cc2C(F)(F)F)CC1` was run?
A: 16%

Q: What about the IC50 [10] of the same compound?
A: 3.31 µM

Q: And the inhibition [11]?
A: 10.4%
